Assays:
[1] = Binding affinity to microtubule by spectrofluorometry
[2] = Effect on bovine brain tubulin assembly by spectrophotometry; parameters: species or system Bos taurus
A2780 [3] = assay: Ratio of compound IC50 to Paclitaxel IC50 for human A2780 cells; assay type: functional
A2780 [4] = assay: Cytotoxicity against human A2780 cells after 2 days by Alamar blue assay; assay type: functional, cell-based; conditions: A2780, 48 h

Row | Kd [1] | EC50 [2] | SMILES | Ratio IC50 (A2780 [3]) | IC50 (A2780 [4])
1 | 0.015 µM | 0.49 µM | CC(=O)O[C@H]1C(=O)[C@@]2(C)[C@H]([C@H](OC(=O)c3ccccc3)[C@]3(O)C[C@H](OC(=O)[C@H](O)[C@@H](NC(=O)c4ccccc4)c4ccccc4)C(C)=C1C3(C)C)[C@]1(OC(C)=O)CO[C@@H]1C[C@@H]2O [PACLITAXEL] | – | –
2 | 24 µM | 5.2 µM | CCCC[C@H](C)[C@H](OC(N)=O)[C@@H](C)[C@H](O)[C@@H](C)C/C(C)=C\[C@H](C)[C@@H](O)[C@@H](C)/C=C\[C@@H](O)CCOC(=O)c1cccc(N(C)C)c1 | 386 | 5.4 µM
